In brackets after ≈: the same amount, converted by molar mass.
Settings: for aqueous solubility: pH 6.8

| SMILES | MDR1-MDCK efflux ratio | intrinsic clearance, human liver microsomes | intrinsic clearance, rat liver microsomes | aqueous solubility | fraction unbound, human plasma | fraction unbound, rat plasma |
| --- | --- | --- | --- | --- | --- | --- |
| CC(C)n1c(=O)cc(N[C@@H](C)c2ccccc2)[nH]c1=O | 58.2 | ≤ 4.74 mL/min/kg | 30.4 mL/min/kg |  |  |  |
| CS(=O)(=O)NC1CCN(C(=O)NCCc2ccc(F)cc2)CC1 | 35.3 | ≤ 4.74 mL/min/kg | 61.4 mL/min/kg | 67.9 µg/mL (≈ 198 µM) |  |  |
| Cc1nc(Cl)cc(Nc2cnn(C(C)(C)C)c2)n1 | 0.684 | ≤ 4.74 mL/min/kg | 21.4 mL/min/kg | 22.6 µg/mL (≈ 85 µM) |  |  |
| Cn1c(=O)n(-c2ccc(C(C)(C)C#N)cc2)c2c3cc(-c4cnc5ccccc5c4)ccc3ncc21 |  | 67.3 mL/min/kg | 91.3 mL/min/kg |  |  |  |
| Cc1nc(CCN2C(=O)NC(C)(C)C2=O)cs1 | 4.61 | ≤ 4.74 mL/min/kg | 21.7 mL/min/kg | 31.9 µg/mL (≈ 126 µM) |  |  |
| CC(C)(C)C(=O)N1CCN(C(=O)CCN2CCOC2=O)CC1 | 64.9 | ≤ 4.74 mL/min/kg | ≤ 10.7 mL/min/kg | 62.7 µg/mL (≈ 201 µM) |  |  |
| COC(=O)N1CC(NCc2c(C)nn(C(C)(C)C)c2C)C1 | 1.79 | ≤ 4.74 mL/min/kg | 61.2 mL/min/kg |  |  |  |
| COc1ccccc1Oc1c(NS(=O)(=O)c2ccc(C(C)(C)C)cc2)nc(-c2ncccn2)nc1OCCO | 88.2 | 16 mL/min/kg | 71.8 mL/min/kg |  |  |  |
| COCC(=O)NC1(C#Cc2ccc(NC(=O)C3CC3)nc2)CCCCC1 |  | 16.7 mL/min/kg | 153 mL/min/kg |  |  |  |
| CC(C)c1cccc(CN2C(=O)N(C)C3(CCCCC3)C2=O)n1 | 1.13 | 826 mL/min/kg | 4200 mL/min/kg | 35 µg/mL (≈ 111 µM) |  |  |
| CCS(=O)(=O)N1CCC(C(=O)N(C)C2CCCCCCC2)CC1 | 1.57 | 133 mL/min/kg | 857 mL/min/kg | 51.4 µg/mL (≈ 149 µM) |  |  |
| CN(c1ccc(NC(=O)Nc2ccc(OC(F)(F)F)cc2)cc1)c1ccnc(Nc2cccc(S(N)(=O)=O)c2)n1 | 8.5 | ≤ 4.74 mL/min/kg | ≤ 10.7 mL/min/kg | 1.95 µg/mL (≈ 3.4 µM) |  |  |
| CC(=O)Nc1ccc2nc(N3CCOCC3)sc2c1 | 0.807 | ≤ 4.74 mL/min/kg | 23.1 mL/min/kg | 44 µg/mL (≈ 159 µM) |  |  |
| Cc1ncsc1C(=O)N1CCCCC1c1nc(N(C)C)ncc1-c1cccc(Cl)c1 (centres undefined) | 1.28 | 236 mL/min/kg | 1200 mL/min/kg | 18.2 µg/mL (≈ 41.2 µM) | 0.00826 | 0.0105 |
| N#Cc1ccc(-c2csc(CCN3CCCC3=O)n2)cc1 | 0.985 | 5.81 mL/min/kg | 67.4 mL/min/kg | 25.1 µg/mL (≈ 84.3 µM) |  |  |
| c1cc(CN2CCC(c3ccn[nH]3)CC2)ccn1 | 1.05 | 5.91 mL/min/kg | 32.1 mL/min/kg | 28.2 µg/mL (≈ 116 µM) |  |  |
| CNCc1cc(N(C)C)nc(C2CCCN2C(=O)c2ccccc2-c2ccccc2)n1 (centres undefined) | 65.4 | 30.8 mL/min/kg | 228 mL/min/kg |  |  |  |
| COc1nc(C)nc(N(C)Cc2nccs2)c1C | 0.467 | 131 mL/min/kg | 508 mL/min/kg | 29.8 µg/mL (≈ 113 µM) |  |  |
| CN(C)c1nc(CN2CCOCC2)nc2scc(-c3cccs3)c12 | 1.03 | 165 mL/min/kg | 1790 mL/min/kg | 57.3 µg/mL (≈ 159 µM) |  |  |

| SMILES | MDR1-MDCK efflux ratio | intrinsic clearance, human liver microsomes | intrinsic clearance, rat liver microsomes | aqueous solubility | fraction unbound, human plasma | fraction unbound, rat plasma |
| --- | --- | --- | --- | --- | --- | --- |
| NC(=O)Cn1c2ccccc2c2nc3ccccc3nc21 |  |  |  | 0.15 µg/mL (≈ 0.543 µM) |  |  |
| O=C(Cn1nc(Cc2ccccc2)c2ccccc2c1=O)NCCc1c[nH]cn1 | 34.6 | 36.6 mL/min/kg | 597 mL/min/kg |  |  |  |
| COCCNc1cc(NC(=O)N2CCCc3cc(CN4CCN(C)CC4=O)c(C=O)nc32)ncc1C#N | 46 | 14.4 mL/min/kg | 24 mL/min/kg | 20 µg/mL (≈ 39.5 µM) |  |  |
| O=c1c(-n2ccnn2)c[nH]n1-c1cc(N2CCOCC2)ncn1 | 1.76 | ≤ 4.74 mL/min/kg | 45.8 mL/min/kg | 30.7 µg/mL (≈ 97.7 µM) |  |  |
| CCCN1CCCN(c2ncccc2C#N)CC1 | 0.42 | 29.4 mL/min/kg | 1680 mL/min/kg | 27.9 µg/mL (≈ 114 µM) |  |  |
| O=C(CN1CCCN(c2ccc(C(F)(F)F)cn2)CC1)Nc1ccccc1 | 0.748 | 112 mL/min/kg | 807 mL/min/kg | 1.7 µg/mL (≈ 4.49 µM) |  |  |
| O=C(CN1CCCN(c2ccc(C(F)(F)F)cn2)CC1)Nc1ccccc1Cl | 1.03 | 229 mL/min/kg | 1650 mL/min/kg | 11 µg/mL (≈ 26.6 µM) |  |  |
| N#Cc1ccnc(Nc2cc(C3CCN(C4COC4)CC3)cc(N3CCC(F)(F)C3)n2)c1 | 1.85 |  |  | 0.71 µg/mL (≈ 1.61 µM) |  |  |
| Cc1nc(-c2ccccc2)ccc1C(=O)N1CCCS1(=O)=O | 0.766 | ≤ 4.74 mL/min/kg | 96 mL/min/kg | 78.5 µg/mL (≈ 248 µM) |  |  |
| COC(=O)c1c(C)[nH]c(C(=O)OCC(=O)N(C)Cc2cccs2)c1C | 1.47 | 54.1 mL/min/kg | 484 mL/min/kg | 40.6 µg/mL (≈ 111 µM) |  |  |
| Cc1cc(C)nc(N2Cc3ccccc3C2=N)n1 | 0.807 | 24.6 mL/min/kg | 1160 mL/min/kg |  |  |  |
| CN(CCc1ccccn1)C(=O)Nc1nncs1 | 1.63 | ≤ 4.74 mL/min/kg | ≤ 10.7 mL/min/kg | 45.6 µg/mL (≈ 173 µM) |  |  |
| CN(CCc1ccccc1)C(=O)CC#N | 0.666 | ≤ 4.74 mL/min/kg | ≤ 10.7 mL/min/kg | 32.5 µg/mL (≈ 161 µM) |  |  |
| CC(=O)N1CCN(CCNC(=O)N2CCc3sccc3C2)CC1 | 30.4 | 10.1 mL/min/kg | 74.2 mL/min/kg | 55.8 µg/mL (≈ 166 µM) |  |  |
| O=C(Cc1ccccc1F)N1CCN(c2nccn3nc4c(c23)CCCC4)CC1 | 0.961 | 132 mL/min/kg | 784 mL/min/kg | 56.1 µg/mL (≈ 143 µM) |  |  |
| COCCN(C)c1ccc(CN2CCOC3(CCCC3)C2)cn1 | 0.619 | 38.5 mL/min/kg | 633 mL/min/kg |  |  |  |
| c1ccc(-c2ccc(CN3CCCCCCC3)cc2)cc1 | 0.675 | 39.5 mL/min/kg | 1530 mL/min/kg | 9.5 µg/mL (≈ 34 µM) | 0.00243 |  |
| COc1ccc(Cc2cccc(C3CCN(C(=O)C4CCCC4)CC3)n2)cc1 | 0.66 | 114 mL/min/kg | 883 mL/min/kg | 25.8 µg/mL (≈ 68.2 µM) |  |  |
| Cn1c(=O)oc2cc(NC(C3CC3)C3CC3)ccc21 |  | 13.6 mL/min/kg | 186 mL/min/kg |  |  |  |

The remaining lines, values ahead:

| MDR1-MDCK efflux ratio | intrinsic clearance, human liver microsomes | intrinsic clearance, rat liver microsomes | aqueous solubility | fraction unbound, human plasma | fraction unbound, rat plasma | SMILES |
| --- | --- | --- | --- | --- | --- | --- |
| 0.459 |  |  | 0.22 µg/mL (≈ 0.72 µM) |  |  | CC(C)NC(=O)c1cn(-c2ccccc2)nc1-c1ccccc1 |
| 1.65 |  |  | 0.28 µg/mL (≈ 0.712 µM) |  |  | COc1cc(OC)cc(-n2c(S)nnc2COc2cccc3ccccc23)c1 |
| 0.992 | 22.1 mL/min/kg | 196 mL/min/kg | 5.3 µg/mL (≈ 15.6 µM) |  |  | O=C(NCc1ccc(-n2cncn2)nc1)c1csc2c1CCCC2 |
| 1.46 | ≤ 4.74 mL/min/kg | 76 mL/min/kg | 3.69 µg/mL (≈ 8.47 µM) |  |  | COc1ccc(C(=O)Cn2c(=O)n(-c3ccccc3F)c3nc(C)nc(C(N)=O)c32)cc1 |
| 2.24 | ≤ 4.74 mL/min/kg | ≤ 10.7 mL/min/kg | 48 µg/mL (≈ 193 µM) |  |  | CCONC(=O)c1cncn1-c1ccc(F)cc1 |
| 0.558 | 8.37 mL/min/kg | 49.1 mL/min/kg | 15.8 µg/mL (≈ 60.3 µM) |  |  | COc1cc(NC(=O)c2ccc(F)cc2C)ncn1 |
| 32.1 | 19.9 mL/min/kg | 691 mL/min/kg |  |  |  | CN(C)CCOc1cc(-c2cn[nH]c2)ccc1NC(=O)C1COc2ccccc2O1 (centres undefined) |
| 2.1 | 107 mL/min/kg | 1190 mL/min/kg |  |  |  | CCCNC(=O)CSc1nc2cc(C)ccc2[nH]1 |
|  | 84.4 mL/min/kg | 647 mL/min/kg |  |  |  | Cc1ccnc2[nH]c(CSCc3ccccc3)nc12 |
| 2.86 | 30.4 mL/min/kg | 406 mL/min/kg |  |  |  | Cc1nc(Cc2ccccc2)sc1C(=O)Nc1cccc(-c2ccn[nH]2)c1 |
|  | 10 mL/min/kg | 306 mL/min/kg |  |  |  | CC(C)(C)c1cc(NS(=O)(=O)c2cccc(F)c2)cc(C(C)(C)C)c1 |
| 0.524 | 28.4 mL/min/kg | 510 mL/min/kg | 58.3 µg/mL (≈ 238 µM) |  |  | Cc1noc(C(C)C)c1C(=O)Nc1ccccn1 |
| 21.9 |  |  | 0.3 µg/mL (≈ 0.615 µM) |  |  | CC(=O)c1cnc2ccc(-c3cc(Cl)c(O)c(Cl)c3)nc2c1N[C@H]1CC[C@H](CN(C)C)CC1 |
| 11.7 | 7.8 mL/min/kg | 72.1 mL/min/kg |  |  |  | CC(C)(O)CCn1cc2cc(NC(=O)c3cccc(C(F)F)n3)c(OCC3COC3)cc2n1 |
| 5 | 17.9 mL/min/kg | 318 mL/min/kg | 51 µg/mL (≈ 155 µM) |  |  | Cc1c(C(=O)NCc2cnc(N(C)C)n2C)sc2ccccc12 |
| 0.401 | 398 mL/min/kg | 4200 mL/min/kg | 37.3 µg/mL (≈ 131 µM) |  |  | CCOc1ccc(-c2ccccc2NC(=O)COC)cc1 |
|  | 42.9 mL/min/kg | 334 mL/min/kg |  |  |  | Oc1cc(F)ccc1-c1nc(-c2ccncc2)no1 |

Source: the Biogen ADME set (Fang et al. 2023)
